Measured values from patent US9650339B2, “Inhibitors of histone demethylases” (Gilead Sciences, Inc., priority 2013, dated 2017).
pEC50, pIC50: −log10 of the molar value.

How the values were obtained:
H3K4me3 mark = assay: Histone lysine demethylase immunofluorescence assay, non-transfected U2OS cells; assay type: cell-based; settings: Homo sapiens, staining of the H3K4me3 mark, 20 hours incubation with compound
How it was run: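 Non-transfected U2OS cells incubated with compounds 20 h in DMEM/5% FBS. Fixed cells immunostained for H3K4me3 with Hoechst counterstain and imaged by high-throughput microscopy. IC50 based on average cellular H3K4me3 staining.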

MCF7 cells = assay: Cell proliferation assay MCF7; assay type: cell-based; settings: MCF7 human breast cancer cells; 120 hours; ATPlite 1 Step
How it was run: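 After 120 h of compound exposure (duplicates, DMSO at most 0.5%) in DMEM GlutaMAX with 10% FBS, ATPlite 1 Step luminescence measured cellular ATP. Compound was added 24 h after seeding, at a density chosen for ~90% confluence at the end.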

KDM4C = biological target: T1, KDM4C (Homo sapiens, UniProt Q9H3R0); assay: Histone lysine demethylase immunofluorescence assay, U2OS cells transfected with KDM4C; assay type: cell-based; settings: U2OS cells transfected with pCMVHA KDM4C; mark detected H3K9me3; 20 hours
T1 construct: Full length; host or cells: U2OS
T1 sequence (Q9H3R0 1-1056): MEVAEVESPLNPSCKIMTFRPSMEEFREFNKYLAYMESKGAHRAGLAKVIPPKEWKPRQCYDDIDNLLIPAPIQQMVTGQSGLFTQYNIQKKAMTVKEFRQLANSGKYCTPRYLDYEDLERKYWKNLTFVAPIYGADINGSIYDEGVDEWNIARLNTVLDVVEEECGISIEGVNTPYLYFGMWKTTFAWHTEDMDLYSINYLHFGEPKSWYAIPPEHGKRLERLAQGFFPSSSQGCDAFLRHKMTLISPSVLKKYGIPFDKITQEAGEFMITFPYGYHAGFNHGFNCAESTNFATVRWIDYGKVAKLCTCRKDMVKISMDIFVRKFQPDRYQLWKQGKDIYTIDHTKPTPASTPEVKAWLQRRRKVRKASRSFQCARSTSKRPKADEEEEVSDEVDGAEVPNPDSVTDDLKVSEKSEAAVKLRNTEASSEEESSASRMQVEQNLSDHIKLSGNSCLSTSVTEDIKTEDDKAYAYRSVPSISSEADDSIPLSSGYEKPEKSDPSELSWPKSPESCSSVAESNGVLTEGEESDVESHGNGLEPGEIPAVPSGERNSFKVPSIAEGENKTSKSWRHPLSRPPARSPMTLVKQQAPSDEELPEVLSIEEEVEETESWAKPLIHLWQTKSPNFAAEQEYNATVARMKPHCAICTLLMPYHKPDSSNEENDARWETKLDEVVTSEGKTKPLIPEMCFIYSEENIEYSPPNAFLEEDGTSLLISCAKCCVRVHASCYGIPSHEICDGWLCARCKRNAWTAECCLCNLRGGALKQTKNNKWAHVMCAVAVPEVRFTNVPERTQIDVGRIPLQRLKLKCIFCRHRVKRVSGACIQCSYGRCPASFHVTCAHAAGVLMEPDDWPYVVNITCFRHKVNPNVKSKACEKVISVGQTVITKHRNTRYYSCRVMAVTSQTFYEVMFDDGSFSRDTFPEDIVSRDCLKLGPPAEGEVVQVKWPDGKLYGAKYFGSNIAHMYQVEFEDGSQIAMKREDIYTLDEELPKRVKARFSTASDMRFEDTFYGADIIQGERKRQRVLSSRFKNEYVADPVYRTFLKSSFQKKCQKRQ
How it was run: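 U2OS cells were transiently transfected with HA-tagged demethylase and reseeded after 6 h into compound-containing DMEM/10% FBS for 20 h. Cells were fixed in formaldehyde and immunostained for HA and the relevant histone methyl mark, then imaged. IC50 is based on mean mark staining in HA+ transfected cells.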

KDM7 (PHF8) = biological target: T2, KDM7 (PHF8) (Homo sapiens, UniProt Q9UPP1); assay: Histone lysine demethylase AlphaLISA assay, KDM7; assay type: biochemical; settings: read-out: PHF8 HDME Inhibition IC50
T2 construct: KDM7 (PHF8); BRIC; 1-1322; Bac
How it was run: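 Biotinylated methylated H3 peptides (K9, K4, K27 or K36 marks) served as substrate, with 25 μM L-Asc and 10 μM α-KG. Enzymes were preincubated 10 min, then exposed to compounds (3% DMSO solutions) 10 min; product detected by AlphaLISA acceptor and streptavidin donor beads at room temperature in dark.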

T2 sequence (Q9UPP1 37-440 limits assumed): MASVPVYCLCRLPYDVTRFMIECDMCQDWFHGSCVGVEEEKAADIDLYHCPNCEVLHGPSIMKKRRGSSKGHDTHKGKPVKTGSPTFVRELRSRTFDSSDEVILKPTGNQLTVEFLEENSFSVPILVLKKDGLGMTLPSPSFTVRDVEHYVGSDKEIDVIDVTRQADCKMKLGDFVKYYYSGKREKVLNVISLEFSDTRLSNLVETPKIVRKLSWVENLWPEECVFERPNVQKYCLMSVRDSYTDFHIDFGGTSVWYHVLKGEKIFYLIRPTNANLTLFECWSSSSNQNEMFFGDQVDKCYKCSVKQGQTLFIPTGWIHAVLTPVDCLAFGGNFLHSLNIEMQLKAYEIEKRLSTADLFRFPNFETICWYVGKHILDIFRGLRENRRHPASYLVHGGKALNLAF

pIC50 (H3K4me3 mark)	pEC50 (MCF7 cells)	pIC50 (KDM4C)	pIC50 (KDM7 (PHF8))	Compound
5.60 to 6.60	< 5.60	< 5.60	< 5.60	CN(C)C/C=C\CNCc1cc(C=O)ccn1 [Compound 99, 2-({[(2Z)-4-(dimethylamino)-but-2-en-1-yl]amino}methyl)-pyridine-4-carbaldehyde]
> 6.60	> 6.60	< 5.60	< 5.60	CC(C#N)NCc1ccnc(CNCCCN(C)C)c1 (stereo not drawn) [Compound 22, 2-({[2-({[3-(dimethylamino)propyl]-amino}methyl)pyridin-4-yl]methyl}amino)-propanenitrile]
> 6.60	> 6.60	5.60 to 6.60	< 5.60	CCN(CC)CCCCNCc1cc(/C=N\CCC2CCCCC2)ccn1 [Compound 67, (2-cyclohexylethyl)-({[2-({[4-(diethylamino)-butyl]amino}methyl)pyridin-4-yl]methylidene})-amine]
> 6.60	> 6.60	5.60 to 6.60	< 5.60	CN(C)CC1CCC(CNCc2cc(/C=N/C3CC3)ccn2)CC1 (stereo not drawn) [Compound 46, N-[(2-{[({4-[(dimethylamino)-methyl]cyclohexyl}-methyl)amino]-methyl}pyridin-4-yl)methylidene]-cyclopropanamine]
> 6.60	> 6.60	5.60 to 6.60	< 5.60	CCN(CC)CCCCNCc1cc(/C=N/CCO)ccn1 [Compound 61, 2-[{[2-({[4-(diethylamino)-butyl]amino}-methyl)pyridin-4-yl]methylidene}-amino]ethan-1-ol]
> 6.60	5.60 to 6.60	5.60 to 6.60	< 5.60	CN(C)CC1CCC(CNCc2cc(C=O)ccn2)CC1 (stereo not drawn) [Compound 97, 2-{[({4-[(dimethylamino)-methyl]cyclohexyl}-methyl)amino]-methyl}pyridine-4-carbaldehyde]
> 6.60	> 6.60	< 5.60	5.60 to 6.60	CCN(CC)CCCCN(Cc1cc(CNC(=O)C(F)(F)F)ccn1)C(=O)C(F)(F)F [Compound 6, N-[4-(diethylamino)butyl]-- 2,2,2-trifluoro-N-({4-[(trifluoroacetamido)-methyl]pyridin-2-yl}methyl)acetamide]
> 6.60	5.60 to 6.60	5.60 to 6.60	< 5.60	CN1CCCC1CCNCc1cc(/C=N/C2CC2)ccn1 (stereo not drawn) [Compound 40, N-{[2-({[2-(l-methylpyrrolidin-2-yl)ethyl]amino}methyl)-pyridin-4-yl]methylidene}-cyclopropanamine]
> 6.60	> 6.60	5.60 to 6.60	5.60 to 6.60	CCN(CC)CCCCN(Cc1cc(C=O)ccn1)C(=O)C(F)(F)F [Compound 115, N-[4-(diethylamino)butyl]-2,2,2-trifluoro-N-[(4-formylpyridin-2-yl)methyl]acetamide]
> 6.60	> 6.60	< 5.60	5.60 to 6.60	CN(C)CCCNCc1cc(CN)ccn1 [Compound 3, [2-({[3-(dimethylamino)propyl]-amino}methyl)pyridin-4-yl]methanamine]
5.60 to 6.60	< 5.60	< 5.60	< 5.60	COc1ccccc1CN1CCC(NC(=O)CNCc2cc(CN)ccn2)CC1 [Compound 9, 2-({[4-(aminomethyl)pyridin-2-yl]methyl}amino)-N-{1-[(2-methoxyphenyl)methyl]-piperidin-4-yl}acetamide]
5.60 to 6.60	< 5.60	< 5.60	< 5.60	CON=Cc1ccnc(CNCCCN(C)C)c1 [Compound 64, [3-(dimethylamino)-propyl]({4-[(methoxyimino)-methyl]pyridin-2-yl}methyl)amine]
> 6.60	> 6.60	5.60 to 6.60	5.60 to 6.60	CCN(CC)CCCCNCc1cc(CNC(=O)C(F)(F)F)ccn1 [Compound 1, N-{[2-({[4-(diethylamino)butyl]-amino}methyl)pyridin-4-yl]methyl}-2,2,2-trifluoroacetamide]
> 6.60	> 6.60	5.60 to 6.60	5.60 to 6.60	CCN(CC(C)(C)N(C)C)C(=O)CNCc1cc(C=O)ccn1 [Compound 118, N-[2-(dimethylamino)-2-methylpropyl]-N-ethyl-2-{[(4-formylpyridin-2-yl)methyl]amino}-acetamide]
> 6.60	> 6.60	< 5.60	< 5.60	CN(C)CCCNCc1cc(/C=N/CCN(C)C)ccn1 [Compound 38, ({4-[{[2-(dimethylamino)ethyl]-imino}methyl]pyridin-2-yl}methyl)[3-(dimethylamino)-propyl]amine]
